Measurements: patent US8003799B2, “Picolinic acid derivatives and their use as fungicides” (Bayer SAS, priority 2000, dated 2011)

Assays:
[1] = test system: Erisyphe graminis f. sp. tritici; assay: In vivo test on Erisyphe graminis f. sp. tritici (powdery mildew of wheat); conditions: dose of 500 g/ha; wheat plants (Audace variety) sprayed 24 hours before contamination; grading 7 to 14 days after contamination vs control plants
Experimental: In Vivo Test on […] Graminis f. Sp. Tritici (Powdery Mildew of Wheat) […] Wheat plants (Audace variety) in starter cups, sown on 50/50 peat soil-pozzulana substrate and grown at 12° C., are treated at the 1-leaf stage (10 cm tall) by spraying with the aqueous suspension described above. Plants, used as controls, are treated with an aqueous solution not containing the active material. After 24 hours, the plants are contaminated by dusting them with […] graminis f. sp. tritici spores, the dusting being carried out using diseased plants. Grading is carried out 7 to 14 days after the contamination, in comparison with the control plants.

Septoria tritici = assay: In vivo test on Septoria tritici (septoria disease of wheat); conditions: dose of 500 g/ha; wheat plants (Scipion variety) sprayed 24 hours before contamination; grading 15 to 20 days after contamination vs control plants
Experimental: In Vivo Test on Septoria Tritici (Septoria Disease of Wheat) […] Wheat plants (Scipion variety) in starter cups, sown on a 50/50 peat soil-pozzolana substrate and grown at 12° C., are treated at the 1-leaf stage (10 cm tall) by spraying with the aqueous suspension described above. Plants, used as controls, are treated with an aqueous solution not containing the active material. After 24 hours, the plants are contaminated by spraying them with an aqueous suspension of Septoria tritici spores (500,000 spores per mL). The spores are collected from a 15-day-old culture and are suspended in a nutrient solution composed of: • 1.5 g/L of gelatin • 0.5 g/L of sodium oleate • 24 g/L of PDB The contaminated wheat plants are incubated for 72 hours at about 20° C. and at 100% relative humidity, and then for 15 days at 80% relative humidity. Grading is carried out 15 to 20 days after the contamination, in comparison with the control plants.

Nc1ccnc(C(=O)Nc2ccc(Oc3ccc(C(F)(F)F)cc3)cc2)c1O [Compound 108, 4-amino-3-hydroxy-N-para-[4-(trifluoromethyl)phenoxy]phenylpicolinamide]
good (at least 50%) or total protection [1]: at least 50%
good (at least 50%) protection (Septoria tritici): at least 50%
